PMC5856786, “A DHODH inhibitor increases p53 synthesis and enhances tumor cell killing by p53 degradation blockage” (Nature Communications, 2018)
Each block holds one compound with its values, some of them ahead of it.

Key:
[1] = test system: P-chk1 (Ser 345)/chk1 in HNDF cells; assay: P-chk1/chk1 ratio by western blotting, HNDF; type: cell-based, human; details: second blot (taken as HNDF)
Method: (Sigma, #N9162) for a further 2 h. […]
(Ser 345) and chk1 were detected. Ponceau S staining was used to monitor loading. […]

human mdmx (hdmx) = target: T1, human mdmx (hdmx) (Homo sapiens, UniProt O15151); assay: hdmx binding (CETSA in ARN8 extracts; ELISA with IP3 peptide); details: CETSA at 100 μM
T1 construct: ARN8 soluble cell extracts were prepared for the cellular thermal shift assay (CETSA); endogenous in cells; host or cells: ARN8 human melanoma cells (soluble extract)
Method: (§1) Levels of gapdh were used to monitor protein loading. e ARN8 or HNDF cells were treated with the indicated compound concentrations for 72 h and subjected to MTT assays. […] Incorporation of ^35S in the p53 immunoprecipitate was determined by autoradiography. The experiment is shown in duplicate
corresponds to residues 17−26 of wild-type p53) was determined by ELISA (See
supplementary information9). The percentage hdm2/hdmx bound to IP3 relative to the vehicle
upon which cycloheximide (CHX) (10 µg mL-1) was added for the indicated periods of time. […]

[2] = test system: cyclin-dependent kinases (CDKs); assay: 33PanQinase radiometric kinase assay, panel of 16 CDKs (Supplementary Table 1); type: biochemical
Excerpt: (§2) Supplementary Table 1. In vitro inhibition (% remaining activity) of cyclin-dependent
(§3) ProQinase GmbH (Freiburg, Germany) using a radiometric protein kinase assay
(§4) (33PanQinase® Activity Assay).
(1 picture or pasted object on this page, not shown here)

CDK5/p25NCK = target: T2, CDK5/p25NCK (Homo sapiens, UniProt Q00535); assay: biochemical; set-up: radiometric 33PanQinase protein kinase activity assay, CDK/cyclin panel, per cent remaining activity; details: read-out: HZ00 10 µM Average (% remaining activity)
T2 construct: p25
Excerpt: as §2, §3, §4
(§5) (1 picture or pasted object on this page, not shown here) 32 Supplementary Table 1. In vitro inhibition (% remaining activity) of cyclin-dependent kinases (CDKs).

CDK8/CycC = CDK8/CycC (Homo sapiens, UniProt P49336); assay: biochemical; set-up: radiometric 33PanQinase protein kinase activity assay, CDK/cyclin panel, per cent remaining activity; details: read-out: HZ00 10 µM Average (% remaining activity)
Excerpt: as §2, §3, §4, §5

CDK5/p35NCK = target: T3, CDK5/p35NCK (Homo sapiens, UniProt Q00535); assay: biochemical; set-up: radiometric 33PanQinase protein kinase activity assay, CDK/cyclin panel, per cent remaining activity; details: read-out: HZ00 10 µM Average (% remaining activity)
T3 construct: p35
Excerpt: as §2, §3, §4, §5

CDK1/CycA2 = CDK1/CycA2 (Homo sapiens, UniProt P06493); assay: biochemical; set-up: radiometric 33PanQinase protein kinase activity assay, CDK/cyclin panel, per cent remaining activity; details: read-out: HZ00 10 µM Average (% remaining activity)
Excerpt: as §2, §3, §4, §5

CDK1/CycB1 = CDK1/CycB1 (Homo sapiens, UniProt P06493); assay: biochemical; set-up: radiometric 33PanQinase protein kinase activity assay, CDK/cyclin panel, per cent remaining activity; details: read-out: HZ00 10 µM Average (% remaining activity)
Excerpt: as §2, §3, §4, §5

CDK1/CycE1 = CDK1/CycE1 (Homo sapiens, UniProt P06493); assay: biochemical; set-up: radiometric 33PanQinase protein kinase activity assay, CDK/cyclin panel, per cent remaining activity; details: read-out: HZ00 10 µM Average (% remaining activity)
Excerpt: as §2, §3, §4, §5

PCTAIRE1/CycY = target: T4, PCTAIRE1/CycY (Homo sapiens, UniProt Q00536); assay: biochemical; set-up: radiometric 33PanQinase protein kinase activity assay, CDK/cyclin panel, per cent remaining activity; details: read-out: HZ00 10 µM Average (% remaining activity)
T4 construct: gene CDK16
Excerpt: as §2, §3, §4, §5

CDK9/CycK = CDK9/CycK (Homo sapiens, UniProt P50750); assay: biochemical; set-up: radiometric 33PanQinase protein kinase activity assay, CDK/cyclin panel, per cent remaining activity; details: read-out: HZ00 10 µM Average (% remaining activity)
Excerpt: as §2, §3, §4, §5

CDK4/CycD3 = CDK4/CycD3 (Homo sapiens, UniProt P11802); assay: biochemical; set-up: radiometric 33PanQinase protein kinase activity assay, CDK/cyclin panel, per cent remaining activity; details: read-out: HZ00 10 µM Average (% remaining activity)
Excerpt: as §2, §3, §4, §5

CDK3/CycE1 = CDK3/CycE1 (Homo sapiens, UniProt Q00526); assay: biochemical; set-up: radiometric 33PanQinase protein kinase activity assay, CDK/cyclin panel, per cent remaining activity; details: read-out: HZ00 10 µM Average (% remaining activity)
Excerpt: as §2, §3, §4, §5

CDK2/CycE1 = CDK2/CycE1 (Homo sapiens, UniProt P24941); assay: biochemical; set-up: radiometric 33PanQinase protein kinase activity assay, CDK/cyclin panel, per cent remaining activity; details: read-out: HZ00 10 µM Average (% remaining activity)
Excerpt: as §2, §3, §4, §5

[3] = test system: p53 and p53-induced proteins in ARN8 cells; assay: Western blotting of p53, hdm2 and p21 levels; type: cell-based, human; details: ARN8 melanoma cells
Method: as §1, with “Levels of p53, as well as downstream targets hdm2 (human mdm2) and p21 were determined. Levels” for “Levels”
Protein extracts were prepared in 1× LDS sample buffer (Invitrogen) with 100 mM DTT and separated and transferred using the Invitrogen western blotting system except in Supplementary Fig. 1c where the BioRad western blotting system was used. HRP-conjugated secondary antibodies were obtained from Dako (#P016102 and #P0211702) or Santa Cruz (#SC-2020). Immunofluorescence was performed by fixing cells in 4% paraformaldehyde freshly made in PBS for 10 min at 37 °C. Following fixation, cells were permeabilized in 0.15% Triton X-100 for 1–2 min at 37 °C followed by staining with the indicated antibodies. Images were taken using Olympus IX-71 microscope controlled by DeltaVision SoftWoRx. Image stacks were deconvolved, quick-projected and saved as tiff images to be processed using Adobe Photoshop. Antibodies to specific antigens are listed in Supplementary Table 8. All original films for blots in Fig. 1 are shown in Supplementary Figs. 9–12.

U2OS cells = assay: PI flow cytometry, sub-G1 cells, U2OS; type: cell-based
Method: Cell cycle distribution analysis was performed on a Becton Dickinson FACScan flow cytometer or FACSCalibur (BD Biosciences) following staining with propidium iodide (PI) or dual labeling with BrdU and PI[36]. These assays were analyzed using CellQuest Pro (BD Biosciences).

CDK8/CycC, sequence (P49336 whole entry): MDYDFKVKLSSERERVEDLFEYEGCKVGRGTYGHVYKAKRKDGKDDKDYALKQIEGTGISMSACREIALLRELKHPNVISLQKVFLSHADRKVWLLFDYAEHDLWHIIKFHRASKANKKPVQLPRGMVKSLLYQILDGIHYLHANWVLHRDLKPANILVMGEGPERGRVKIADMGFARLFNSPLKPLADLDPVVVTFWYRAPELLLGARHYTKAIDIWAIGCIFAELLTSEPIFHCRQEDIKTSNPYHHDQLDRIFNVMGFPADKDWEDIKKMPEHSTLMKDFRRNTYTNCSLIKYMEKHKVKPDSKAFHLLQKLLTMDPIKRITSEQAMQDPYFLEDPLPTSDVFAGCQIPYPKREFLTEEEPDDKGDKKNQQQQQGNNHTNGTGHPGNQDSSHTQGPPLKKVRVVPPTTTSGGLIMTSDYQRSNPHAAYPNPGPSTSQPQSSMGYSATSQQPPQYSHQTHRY
CDK8/CycC, sequence (P24863 whole entry partner): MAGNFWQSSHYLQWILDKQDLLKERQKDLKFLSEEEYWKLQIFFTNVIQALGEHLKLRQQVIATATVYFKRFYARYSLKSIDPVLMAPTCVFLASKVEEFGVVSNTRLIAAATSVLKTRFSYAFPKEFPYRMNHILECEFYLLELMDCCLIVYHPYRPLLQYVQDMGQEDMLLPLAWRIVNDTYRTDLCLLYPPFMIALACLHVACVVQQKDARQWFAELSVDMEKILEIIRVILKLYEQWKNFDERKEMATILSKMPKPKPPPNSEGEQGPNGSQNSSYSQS
T3 sequence (Q00535 whole entry): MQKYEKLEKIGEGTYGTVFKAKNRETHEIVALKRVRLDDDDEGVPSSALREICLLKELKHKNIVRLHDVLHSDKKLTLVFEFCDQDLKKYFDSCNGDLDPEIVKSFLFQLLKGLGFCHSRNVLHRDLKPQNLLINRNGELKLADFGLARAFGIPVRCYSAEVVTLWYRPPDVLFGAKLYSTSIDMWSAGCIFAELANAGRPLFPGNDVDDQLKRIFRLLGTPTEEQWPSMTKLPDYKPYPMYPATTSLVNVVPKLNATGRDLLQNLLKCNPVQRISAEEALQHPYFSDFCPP
T3 sequence (Q15078 whole entry partner): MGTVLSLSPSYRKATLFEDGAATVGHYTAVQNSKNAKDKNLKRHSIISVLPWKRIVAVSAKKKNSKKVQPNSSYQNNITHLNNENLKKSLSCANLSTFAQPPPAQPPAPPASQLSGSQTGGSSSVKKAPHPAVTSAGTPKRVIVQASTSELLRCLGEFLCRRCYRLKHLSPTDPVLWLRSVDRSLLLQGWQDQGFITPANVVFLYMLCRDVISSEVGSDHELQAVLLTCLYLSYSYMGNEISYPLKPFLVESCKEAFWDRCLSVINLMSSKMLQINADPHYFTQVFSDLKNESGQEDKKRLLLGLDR
T2 sequence (Q00535 whole entry): as the sequence (Q00535 whole entry) above
T2 sequence (Q15078 whole entry partner): as the sequence (Q15078 whole entry partner) above
CDK3/CycE1, sequence (Q00526 whole entry): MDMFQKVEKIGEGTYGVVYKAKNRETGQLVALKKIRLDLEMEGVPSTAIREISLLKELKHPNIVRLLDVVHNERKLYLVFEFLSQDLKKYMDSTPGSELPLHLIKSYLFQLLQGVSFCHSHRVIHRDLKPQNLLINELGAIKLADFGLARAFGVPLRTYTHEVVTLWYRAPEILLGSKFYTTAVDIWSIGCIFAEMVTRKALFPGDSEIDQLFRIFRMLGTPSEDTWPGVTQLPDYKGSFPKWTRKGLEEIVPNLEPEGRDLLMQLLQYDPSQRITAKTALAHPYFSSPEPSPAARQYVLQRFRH
CDK3/CycE1, sequence (P24864 whole entry partner): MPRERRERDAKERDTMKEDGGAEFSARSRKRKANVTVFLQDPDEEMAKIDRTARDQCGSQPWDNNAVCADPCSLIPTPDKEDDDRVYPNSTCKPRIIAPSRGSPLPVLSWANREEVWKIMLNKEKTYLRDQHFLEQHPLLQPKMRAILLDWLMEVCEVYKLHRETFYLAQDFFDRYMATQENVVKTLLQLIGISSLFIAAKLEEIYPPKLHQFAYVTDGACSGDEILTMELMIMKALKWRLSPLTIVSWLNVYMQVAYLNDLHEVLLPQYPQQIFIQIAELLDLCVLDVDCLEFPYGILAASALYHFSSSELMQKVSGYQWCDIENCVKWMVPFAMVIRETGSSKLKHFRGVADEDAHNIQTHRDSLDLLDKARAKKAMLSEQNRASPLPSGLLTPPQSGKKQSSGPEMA
CDK1/CycA2, sequence (P06493 whole entry): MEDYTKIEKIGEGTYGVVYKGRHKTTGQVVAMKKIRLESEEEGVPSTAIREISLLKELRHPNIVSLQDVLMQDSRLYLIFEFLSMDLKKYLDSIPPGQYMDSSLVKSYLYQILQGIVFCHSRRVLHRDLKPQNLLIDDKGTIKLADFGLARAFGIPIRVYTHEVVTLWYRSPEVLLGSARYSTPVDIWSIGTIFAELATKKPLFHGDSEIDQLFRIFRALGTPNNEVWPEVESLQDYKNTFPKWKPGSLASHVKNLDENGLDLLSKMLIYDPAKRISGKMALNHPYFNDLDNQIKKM
CDK1/CycA2, sequence (P20248 whole entry partner): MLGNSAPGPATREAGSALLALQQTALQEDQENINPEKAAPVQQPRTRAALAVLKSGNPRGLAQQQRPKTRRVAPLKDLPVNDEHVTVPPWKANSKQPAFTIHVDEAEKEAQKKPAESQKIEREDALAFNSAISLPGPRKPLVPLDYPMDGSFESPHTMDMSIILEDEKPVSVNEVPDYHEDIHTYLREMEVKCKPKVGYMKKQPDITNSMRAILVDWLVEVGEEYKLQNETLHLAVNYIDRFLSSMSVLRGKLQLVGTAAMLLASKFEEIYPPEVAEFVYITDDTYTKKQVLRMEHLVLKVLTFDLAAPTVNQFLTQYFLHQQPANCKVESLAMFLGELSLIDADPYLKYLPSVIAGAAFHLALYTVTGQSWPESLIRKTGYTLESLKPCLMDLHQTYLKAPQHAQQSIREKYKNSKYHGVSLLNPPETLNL
CDK1/CycB1, sequence (P06493 whole entry): as the sequence (P06493 whole entry) above
CDK1/CycB1, sequence (P14635 whole entry partner): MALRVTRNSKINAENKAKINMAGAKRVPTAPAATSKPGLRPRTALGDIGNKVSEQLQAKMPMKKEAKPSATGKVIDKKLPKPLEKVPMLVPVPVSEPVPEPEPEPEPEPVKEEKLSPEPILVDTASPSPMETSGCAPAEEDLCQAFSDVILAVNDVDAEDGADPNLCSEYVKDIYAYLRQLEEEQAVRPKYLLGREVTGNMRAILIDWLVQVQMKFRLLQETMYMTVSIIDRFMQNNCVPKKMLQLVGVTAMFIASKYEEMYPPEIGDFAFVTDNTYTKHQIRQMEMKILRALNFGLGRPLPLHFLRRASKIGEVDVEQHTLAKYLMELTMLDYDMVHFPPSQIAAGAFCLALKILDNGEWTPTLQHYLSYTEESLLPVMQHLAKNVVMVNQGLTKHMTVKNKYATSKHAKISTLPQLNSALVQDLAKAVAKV
CDK1/CycE1, sequence (P06493 whole entry): as the sequence (P06493 whole entry) above
CDK1/CycE1, sequence (P24864 whole entry partner): as the sequence (P24864 whole entry partner) above
CDK4/CycD3, sequence (P11802 whole entry): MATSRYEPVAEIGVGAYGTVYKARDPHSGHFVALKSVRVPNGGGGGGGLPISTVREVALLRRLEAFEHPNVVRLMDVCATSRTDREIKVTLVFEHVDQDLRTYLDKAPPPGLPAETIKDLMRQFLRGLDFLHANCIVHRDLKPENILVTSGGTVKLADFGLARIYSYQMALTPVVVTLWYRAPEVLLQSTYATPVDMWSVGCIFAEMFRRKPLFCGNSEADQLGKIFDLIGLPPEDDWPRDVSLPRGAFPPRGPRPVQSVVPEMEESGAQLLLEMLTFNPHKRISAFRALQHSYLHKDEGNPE
CDK4/CycD3, sequence (P30281 whole entry partner): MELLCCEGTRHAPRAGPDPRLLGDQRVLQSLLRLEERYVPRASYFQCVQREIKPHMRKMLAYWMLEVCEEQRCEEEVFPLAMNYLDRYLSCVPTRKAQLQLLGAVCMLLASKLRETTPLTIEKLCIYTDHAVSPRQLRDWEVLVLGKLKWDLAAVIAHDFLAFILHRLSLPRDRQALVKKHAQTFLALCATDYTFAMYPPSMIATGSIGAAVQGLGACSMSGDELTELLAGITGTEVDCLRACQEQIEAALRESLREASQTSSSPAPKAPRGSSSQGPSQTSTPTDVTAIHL

binding to human mdmx (hdmx) (human mdmx (hdmx)): not detected
inhibition of cyclin-dependent kinases [2]: did not detect inhibition
remaining activity at 10 µM (CDK5/p25NCK): 104%
remaining activity at 10 µM (CDK8/CycC): 95.2%
remaining activity at 10 µM (CDK5/p35NCK): 105%
remaining activity at 10 µM (CDK1/CycA2): 89.1%
remaining activity at 10 µM (CDK1/CycB1): 104%
remaining activity at 10 µM (CDK1/CycE1): 101%
remaining activity at 10 µM (PCTAIRE1/CycY): 103%
remaining activity at 10 µM (CDK9/CycK): 100%
remaining activity at 10 µM (CDK4/CycD3): 89.2%
remaining activity at 10 µM (CDK3/CycE1): 96.6%
remaining activity at 10 µM (CDK2/CycE1): 102%
Compound: O=C(NC1CCCc2c1cnn2-c1ccccc1F)c1ccccn1 (stereo not drawn) [HZ00]
P-chk1/chk1 ([1]; HZ00 10 µM, 24 h): 0.98
P-chk1/chk1 ([1]; HZ00 10 µM, 48 h): 0.89
P-chk1/chk1 ([1]; HZ00 10 µM, 72 h): 1.13
P-chk1/chk1 ([1]; HZ00 20 µM, 24 h): 1.08
P-chk1/chk1 ([1]; HZ00 20 µM, 48 h): 1.05
P-chk1/chk1 ([1]; HZ00 20 µM, 72 h): 1.07
levels of p53 and p53-induced proteins [3]: increased the levels of p53 and p53-induced proteins

Compound: O=C(NC1CCCc2c1cnn2-c1ccccc1F)c1onc2c1CCCC2 (stereo not drawn) [HZ05]
sub-G1 cells (U2OS cells; HZ05 1 μM 72 h + 48 h, 2 μM nutlin-3a last 48 h): 38.2%
sub-G1 cells (U2OS cells; HZ05 1 μM 72 h + 48 h, DMSO last 48 h): 25.7%
sub-G1 cells (U2OS cells; HZ05 1 μM, 72 h treatment): 3.7%
sub-G1 cells (U2OS cells; HZ05 2.5 μM, 72 h treatment): 4.8%
